Assay results from ChEMBL document CHEMBL1201862, “PubChem BioAssay data set” (2004).
Values joined by “and” are separate entries in the source; they are usually repeats but may differ in a detail not shown here. Equal values may be shown once.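 96-well plates; 48 h exposure; 5 concentrations. Endpoints by linear interpolation between flanking doses. Not reached: highest tested concentration assigned. At the GI50, growth is halved.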 Active and inactive are the calls of the source. Cut-off read from the data, not from the text of the source: active = GI50 up to about 1.1 µM and inactive = higher.

Columns and labels:
Experiment in all cases: NCI-60 cell line screen, 48 h
[1] = test system: U-251
[2] = test system: M14
[3] = test system: NCI-H522
[4] = test system: SF-539
[5] = test system: HCT-15
[6] = test system: HCT-116
[7] = test system: SF-295
[8] = test system: SK-MEL-2
[9] = test system: SNB-19
[10] = test system: NCI-H460
[11] = test system: Malme-3M
[12] = test system: NCI-H226
[13] = test system: ACHN
[14] = test system: CAKI-1
[15] = test system: RXF 393
[16] = test system: OVCAR-4
[17] = test system: UO-31
[18] = test system: RPMI-8226
[19] = test system: HOP-92

Compound	GI50 [1]	GI50 [2]	GI50 [3]	GI50 [4]	GI50 [5] [µM]	GI50 [6]	GI50 [7]	GI50 [8]	GI50 [9]	GI50 [10]	GI50 [11]	GI50 [12]	GI50 [13]	GI50 [14]	GI50 [15]	GI50 [16]	GI50 [17]	GI50 [18]	GI50 [19]
Nc1ccc(C(=O)/C=C/c2ccccc2O)cc1	> 100 µM (inactive)	> 100 µM (inactive)	> 100 µM (inactive)	> 100 µM (inactive)	> 100	> 100 µM (inactive)	> 100 µM (inactive)	> 100 µM (inactive)	> 100 µM (inactive)	> 100 µM (inactive)	> 100 µM (inactive)	> 100 µM (inactive)	> 100 µM (inactive)	> 100 µM (inactive)	> 100 µM (inactive)	> 100 µM (inactive)	> 100 µM (inactive)	–	–
CNS(=O)(=O)NN(C)S(=O)(=O)c1ccc2ccccc2c1	> 100 µM (inactive)	> 100 µM (inactive)	> 100 µM (inactive)	> 100 µM (inactive)	> 100	> 100 µM (inactive)	> 100 µM (inactive)	> 100 µM (inactive)	> 10 µM (inactive)	–	> 100 µM (inactive)	> 100 µM (inactive)	> 100 µM (inactive)	> 100 µM (inactive)	> 100 µM (inactive)	> 100 µM (inactive)	> 100 µM (inactive)	> 100 µM (inactive)	–
CCCC(=O)N[C@@H](Cc1cc(I)c(O)c(I)c1)C(=O)NCCCNCCCCNCCCNC(=O)[C@@H](N)CCCN=C(N)N	> 100 µM (inactive)	25.7 µM (inactive)	11.2 µM (inactive)	10.4 µM (inactive)	> 100	67 µM (inactive)	> 10 µM (inactive)	–	> 100 µM (inactive)	34.2 µM (inactive)	> 100 µM (inactive)	> 100 µM (inactive)	40.1 µM (inactive)	–	> 100 µM (inactive)	–	29.8 µM (inactive)	40.6 µM (inactive)	–
Cc1ccc(S(=O)(=O)c2ccccc2[N+](=O)[O-])cc1	> 100 µM (inactive)	> 100 µM (inactive)	–	> 100 µM (inactive)	> 100	66.8 µM (inactive)	> 100 µM (inactive)	> 100 µM (inactive)	–	> 100 µM (inactive)	85.1 µM (inactive)	> 100 µM (inactive)	> 100 µM (inactive)	67.5 µM (inactive)	37.3 µM (inactive)	86.9 µM (inactive)	81.8 µM (inactive)	80.7 µM (inactive)	–
COc1ccc2c(c1)CC[C@@H]1C2CC[C@]2(C)C(=N\O)/C(=N/O)CC12 (stereo not given in full)	15.4 µM (inactive)	13.4 µM (inactive)	2.93 µM (inactive)	18.5 µM (inactive)	12.4	16 µM (inactive)	10 µM (inactive)	13.1 µM (inactive)	16.6 µM (inactive)	3.41 µM (inactive)	17.7 µM (inactive)	11 µM (inactive)	15.7 µM (inactive)	10.7 µM (inactive)	–	–	12.8 µM (inactive)	9.31 µM (inactive)	16.1 µM (inactive)
CCOC(=O)NC(=O)c1cn(C2OC(CO)C(O)C2O)c(=O)[nH]c1=O (stereo not given)	> 100 µM (inactive)	> 100 µM (inactive)	> 100 µM (inactive)	> 100 µM (inactive)	> 100	> 100 µM (inactive)	> 100 µM (inactive)	> 100 µM (inactive)	> 100 µM (inactive)	> 100 µM (inactive)	> 100 µM (inactive)	> 100 µM (inactive)	> 100 µM (inactive)	> 100 µM (inactive)	> 100 µM (inactive)	> 100 µM (inactive)	> 100 µM (inactive)	> 100 µM (inactive)	–
O=C(O)c1ccc(O)c(/N=N/c2cc(S(=O)(=O)O)c3ccccc3c2O)c1	> 100 µM (inactive)	–	–	> 10 µM (inactive)	> 10	20 µM (inactive)	> 10 µM (inactive)	> 10 µM (inactive)	> 100 µM (inactive)	37.2 µM (inactive)	> 100 µM (inactive)	> 100 µM (inactive)	> 100 µM (inactive)	54.3 µM (inactive)	> 100 µM (inactive)	> 100 µM (inactive)	> 100 µM (inactive)	> 100 µM (inactive)	> 100 µM (inactive)
Cn1c(=O)c(C(=O)NC23CC4CC(CC(C4)C2)C3)c(O)c2ccccc21	24.5 µM (inactive)	28.8 µM (inactive)	> 100 µM (inactive)	26.7 µM (inactive)	> 100	23.5 µM (inactive)	18.5 µM (inactive)	–	21.2 µM (inactive)	22.3 µM (inactive)	21.2 µM (inactive)	13.4 µM (inactive)	19.9 µM (inactive)	–	14.8 µM (inactive)	–	50.1 µM (inactive)	> 100 µM (inactive)	–
C/C(=N\NS(=O)(=O)c1ccccc1)c1ccc(Cl)c(Cl)c1	37.2 µM (inactive)	45.3 µM (inactive)	–	43 µM (inactive)	57	50.9 µM (inactive)	46.3 µM (inactive)	> 100 µM (inactive)	–	46.1 µM (inactive)	68.2 µM (inactive)	62.8 µM (inactive)	46.6 µM (inactive)	75.2 µM (inactive)	55.3 µM (inactive)	58.9 µM (inactive)	45.4 µM (inactive)	67.5 µM (inactive)	67 µM (inactive)
COc1ccc2cc3nc(O)cc(O)c3cc2c1OC	> 100 µM (inactive)	> 100 µM (inactive)	–	> 100 µM (inactive)	> 100	> 100 µM (inactive)	> 100 µM (inactive)	> 100 µM (inactive)	> 100 µM (inactive)	> 100 µM (inactive)	> 100 µM (inactive)	> 100 µM (inactive)	> 100 µM (inactive)	> 100 µM (inactive)	> 100 µM (inactive)	> 100 µM (inactive)	> 100 µM (inactive)	> 100 µM (inactive)	> 100 µM (inactive)
Nc1ncnc2c1N=CN(Oc1ccccc1)N2	> 100 µM (inactive)	> 100 µM (inactive)	–	> 100 µM (inactive)	> 100	> 100 µM (inactive)	> 100 µM (inactive)	> 100 µM (inactive)	–	> 100 µM (inactive)	18.3 µM (inactive)	> 100 µM (inactive)	> 100 µM (inactive)	> 100 µM (inactive)	> 100 µM (inactive)	> 100 µM (inactive)	–	> 100 µM (inactive)	> 100 µM (inactive)
CCCN1CN(C(C(=O)N[C@@H]2C(=O)N3C2SC(C)(C)C3C(=O)O)c2ccc(O)cc2)CSC1=S (stereo not given in full)	> 100 µM (inactive)	> 100 µM (inactive)	22.6 µM (inactive)	> 100 µM (inactive)	> 100	> 100 µM (inactive)	> 100 µM (inactive)	> 100 µM (inactive)	> 100 µM (inactive)	> 100 µM (inactive)	> 100 µM (inactive)	–	> 100 µM (inactive)	> 100 µM (inactive)	–	> 100 µM (inactive)	> 100 µM (inactive)	62.1 µM (inactive)	> 100 µM (inactive)
O=C(CC1(O)C(=O)Nc2ccc(Br)cc21)c1ccc(Cl)cc1Cl (stereo not given)	49.2 µM (inactive)	34.8 µM (inactive)	25.1 µM (inactive)	45.5 µM (inactive)	69	31.8 µM (inactive)	64.7 µM (inactive)	31.7 µM (inactive)	> 100 µM (inactive)	49.8 µM (inactive)	63.7 µM (inactive)	39.4 µM (inactive)	60.1 µM (inactive)	–	91.6 µM (inactive)	36.1 µM (inactive)	> 100 µM (inactive)	22.1 µM (inactive)	–
O=C1/C(=C/c2ccccc2)CN(C(=O)OCC(Cl)(Cl)Cl)C/C1=C\c1ccccc1	1.68 µM (inactive)	2.14 µM (inactive)	3.47 µM (inactive)	4.29 µM (inactive)	1.95	1.33 µM (inactive)	1.83 µM (inactive)	4.89 µM (inactive)	3.27 µM (inactive)	2.1 µM (inactive)	3.2 µM (inactive)	–	1.98 µM (inactive)	–	1.68 µM (inactive)	–	3.52 µM (inactive)	0.0394 µM (active)	–
COC1OC(COC(C)=O)C(OC(C)=O)C(OC(C)=O)C1NC(=O)N(CCCl)N=O (stereo not given)	–	> 100 µM (inactive)	24.1 µM (inactive) and 45.9 µM (inactive)	–	–	> 100 µM (inactive)	39.1 µM (inactive) and 24.2 µM (inactive)	–	> 100 µM (inactive) and 69.7 µM (inactive)	63 µM (inactive) and 44.6 µM (inactive)	> 100 µM (inactive)	> 100 µM (inactive)	> 100 µM (inactive)	> 100 µM (inactive)	> 100 µM (inactive)	> 100 µM (inactive)	–	–	–
CCOc1ccc(NC(=O)CC2SC(Nc3ccc(C)cc3)=NC2=O)cc1 (stereo not given)	> 100 µM (inactive)	> 100 µM (inactive)	> 100 µM (inactive)	> 100 µM (inactive)	> 100	> 100 µM (inactive)	> 100 µM (inactive)	–	> 100 µM (inactive)	> 100 µM (inactive)	> 100 µM (inactive)	–	> 100 µM (inactive)	–	> 100 µM (inactive)	> 100 µM (inactive)	> 100 µM (inactive)	–	–
Cc1cc(N(CCC#N)CCC#N)ccc1/C=C(\NC(=O)/C=C/c1ccccc1)C(=O)N=[N+]=[N-]	43.1 µM (inactive)	> 100 µM (inactive)	30.4 µM (inactive)	52.5 µM (inactive)	> 100	> 100 µM (inactive)	17.2 µM (inactive)	> 100 µM (inactive)	77.8 µM (inactive)	> 100 µM (inactive)	> 100 µM (inactive)	> 100 µM (inactive)	> 100 µM (inactive)	> 100 µM (inactive)	34.8 µM (inactive)	–	> 100 µM (inactive)	> 100 µM (inactive)	–
